From patent publication US10195270B2, “Peptide/β-1,3-glucan complex and production method thereof and pharmaceutical composition containing peptide/β-1,3-glucan complex” (Japan Science and Technology Agency, priority 2014, dated 2019) come the findings set out here.

The test system of test [1] is spleen cells of mice. Briefly: Antigenic peptide-specific IFN-γ production (ELISA) by OVA peptide-stimulated spleen cells of immunised mice (Examples 3 and 6). It is filed as in vivo, mouse. To be noted: Example 3, FIG. 4; C57BL/6 mice, intradermal once; spleen cells one week after administration, stimulated with OVA peptide 10 μg/mL, ELISA after 24 hours. As for the experimental part: (1) One of the following was intradermally administered once to mice (C57BL/6 mouse, male, 7 weeks old): (1) antigenic peptide (OVA peptide, 5 μg) having an ovalbumin (OVA)-derived amino acid sequence (SEQ ID No. 1), (2) […] (5 μg) and CpG DNA (base sequence: […] (SEQ ID No. 2), 30 μg), (3) OVA peptide-dA40(S)/SPG complex (see Example 1, 5 μg), (4) OVA peptide-dA40(S)/SPG complex (prepared as in Example 1, 5 μg) and CpG DNA (30 μg), and (5) OVA peptide-dA40(S)/SPG complex (5 μg) and incomplete Freund's adjuvant (IFA). An investigation was performed to see whether antigen-specific interferon-γ (IFN-γ) was induced by, one week after administration, harvesting spleen cells from the mice, placing the cells in 96 wells (1.0×10^6 cells/well), and then stimulating the cells using OVA peptide (10 μg/mL).
Then 24 hours after stimulating the spleen cells by OVA peptide, enzyme-linked immunosorbent assay (ELISA) was used to quantitatively measure IFN-γ in the culture medium. […]
Then 24 hours after stimulating the spleen cells by OVA peptide, enzyme-linked immunosorbent assay (ELISA) was used to quantitatively measure IFN-γ in the culture medium.

Test [2] relates to spleen cells of mice. Briefly: Fraction of OVA peptide-specific CD8-positive (cytolytic) T cells in spleen cells of immunised mice, flow cytometer (Examples 4 and 7). It counts as in vivo, mouse. To be noted: Example 4, FIG. 5; spleen cells of Example 3 mice stimulated with OVA peptide-dA40(S)/SPG complex, cultured 6 days. The protocol:
Mouse spleen cells were harvested from mice to which had been intradermally administered in Example 3 the (1) OVA peptide, (2) OVA peptide and CpG DNA, (3) OVA peptide-dA40(S)/SPG complex, or (4) OVA peptide-dA40(S)/SPG complex and CpG DNA. The harvested cells were stimulated using OVA peptide-dA40(S)/SPG complex and were cultured for 6 days. Then after antibody staining, a flow cytometer was used to evaluate the fraction of T cells that had cytotoxic specificity (CD8 positive) for OVA peptide.
The fraction of OVA peptide-specific CD8-positive T cells was low for the case (peptide) in which OVA peptide alone was administered, the case (peptide+CpG) in which OVA peptide and CpG DNA were simultaneously administered, and the case (peptide/SPG) in which OVA peptide-dA40(S)/SPG complex alone was administered.
The (1) OVA peptide, (2) OVA peptide and CpG DNA, (3) OVA peptide and CpG DNA-dA40(S)/SPG complex, or (4) OVA peptide-dA40(S)/CpG DNA-dA40(S)/SPG ternary complex prepared in Example 5 of Example 6 was intradermally administered, mouse spleen cells were harvested and stimulated using OVA peptide-dA40(S)/SPG complex, and the stimulated cells were cultured for 6 days. Then after antibody staining, a flow cytometer was used to evaluate the fraction of T cells that had cytotoxic specificity (CD8 positive) for OVA peptide.
(In general: In flow cytometry, cells or beads pass a laser one at a time.)

For the sequence “SIINFEKL (SEQ ID No. 1) (listed as Homo sapiens) [OVA peptide]”, the “OVA peptide-specific interferon (IFN-γ) reaction” value in the test on spleen cells of mice [1] is listed as “No OVA peptide-specific interferon reaction was observed”. Further, in the test with spleen cells of mice [2], the “fraction of OVA peptide-specific CD8-positive T cells among the spleen cells” value was “low”.
